This is an account of results in paper PMC2944806, “HLA Class I Binding of HBZ Determines Outcome in HTLV-1 Infection” (PLoS Pathogens, 2010).

The target of the first test is HLA class I molecule B*3501 (Homo sapiens, UniProt P01889, A329T/A93T/A95T/C349S/D201E/D98Y/E176V/E187L/E204Q/E69T/I218V/K202T/L119I/Q94N/R155S/R180L/S121R/S35A/S48A/T118I/V127L/V306I/V36M/Y140S/Y91F). Put plainly: REVEAL HLA-peptide binding assay, B*3501. The following applies: assembly of peptide-HLA complex by ELISA with conformation-dependent anti-HLA antibody, relative to positive control peptide for that allele, comparable within an allele only. On the procedure:
The REVEAL HLA-peptide binding assay (ProImmune Ltd., Oxford, UK) was used to quantify peptide-HLA binding. For each allele-peptide combination that was tested, assembly of peptide-HLA complexes was quantified by ELISA with a conformation-dependent anti-HLA antibody. Samples of assembling peptide-HLA complexes were taken at a defined time point and snap-frozen in liquid nitrogen prior to analysis. The assembly for each peptide-HLA complex was then compared against a positive control peptide for that allele as the percentage of assembled peptide relative to that control. We selected four HLA class I alleles and 50 HTLV-1 peptides for each allele. The allele choice was based on allele frequency in the Kagoshima database and included 2 A alleles and 2 B alleles as well as alleles for which we knew that the epitope prediction tended to be poor. The 50 HTLV-1 nonamer peptides for each allele were selected to represent a range of predicted binding affinities, from weak to strong binding peptides. They originated from 4 HTLV-1 reference strain proteins: Tax, HBZ, Gag and Polymerase.
Note the binding score is with respect to a reference good binding peptide for each allele and therefore scores can be compared within an allele but not between alleles.
With CPINYSLLA [HTLV-1 nonamer peptide], the “Score (experimentally measured binding affinity, % binding compared to control peptide)” value was determined as 102.68%.
CPLCQDPTH [HTLV-1 nonamer peptide]: the “Score (experimentally measured binding affinity, % binding compared to control peptide)” value was 36.7%.
Take DPILRSLAY [HTLV-1 nonamer peptide]: the “Score (experimentally measured binding affinity, % binding compared to control peptide)” value came to 72.18%.
For the sequence EEEKQIAEY [HTLV-1 nonamer peptide], the “Score (experimentally measured binding affinity, % binding compared to control peptide)” value was 8.99%.
Still for that read-out and setting: for ELVDGLLSL [HTLV-1 nonamer peptide] the value was 0%; for EPEEDALLL [HTLV-1 nonamer peptide], 11.92%.
With EPEPEEDAL [HTLV-1 nonamer peptide], the “Score (experimentally measured binding affinity, % binding compared to control peptide)” value turned out to be 28.71%.
The same measure, in the same setting: under EPGPSSYDF [HTLV-1 nonamer peptide] stands 102.27%; under FPQCTILQY [HTLV-1 nonamer peptide], 103.38%; under FPTQRTSKT [HTLV-1 nonamer peptide], 81.35%.
Turning to LASLLPKGY [HTLV-1 nonamer peptide], the “Score (experimentally measured binding affinity, % binding compared to control peptide)” value worked out at 98.24%.
For LLQEKEDLM [HTLV-1 nonamer peptide], the “Score (experimentally measured binding affinity, % binding compared to control peptide)” value was found to be 0%.
Consider LPEDCLPTT [HTLV-1 nonamer peptide], for which the “Score (experimentally measured binding affinity, % binding compared to control peptide)” value is 52.2%.
For the sequence “LPTTLFQPA [HTLV-1 nonamer peptide from Tax]”, the “Score (experimentally measured binding affinity, % binding compared to control peptide)” value came to 119.5%.
Turning to LTPPITHTT [HTLV-1 nonamer peptide], the “Score (experimentally measured binding affinity, % binding compared to control peptide)” value is 0%.
Same read-out and setting: for LVEELVDGL [HTLV-1 nonamer peptide] the value was 0%; for MQELGIDGY [HTLV-1 nonamer peptide], 48.1%; for QAAPGSPQF [HTLV-1 nonamer peptide], 86.5%.
Still for that read-out and setting: for WALPELQAL [HTLV-1 nonamer peptide] the value was 73.45%; for WPLLPHVIF [HTLV-1 nonamer peptide], 49.66%; for WTFTDGTPM [HTLV-1 nonamer peptide], 137.29%.
As to WTINHLNVL [HTLV-1 nonamer peptide], the “Score (experimentally measured binding affinity, % binding compared to control peptide)” value is given as 1.04%.
Consider YILWDKQIL [HTLV-1 nonamer peptide], for which the “Score (experimentally measured binding affinity, % binding compared to control peptide)” value stood at 0%.
For YISQDFLNM [HTLV-1 nonamer peptide], the “Score (experimentally measured binding affinity, % binding compared to control peptide)” value is given as 0%.

The target of another test is T1, HLA class I molecule A*0201 (Homo sapiens, UniProt P04439, D140Y/D185E/D98H/E176V/E277Q/G131W/G231S/I119V/I121R/I166T/I218V/L300P/L318F/N151K/N90K/P208A/P217A/Q86G/Q94H/R138H/R169H/T345S).
T1 construct: purchased ProImmune Ltd., Oxford, UK
Experiment: not given
Format: binding. The note with it: REVEAL assay, assembly of peptide-HLA complex by ELISA with conformation-dependent anti-HLA antibody, relative to positive control peptide for that allele, comparable within an allele only.
Turning to AAGAALIPV [HTLV-1 nonamer peptide], the “Score (experimentally measured binding affinity, % binding compared to control peptide)” value came out at 34.35%.
For the sequence “ALLGEIQWV [HTLV-1 nonamer peptide from Pol]”, the “Score (experimentally measured binding affinity, % binding compared to control peptide)” value was determined as 84.64%.
In the case of ELVDGLLSL [HTLV-1 nonamer peptide], the “Score (experimentally measured binding affinity, % binding compared to control peptide)” value came out at 25.11%.
In the case of “FMQTIRLAV [HTLV-1 nonamer peptide from Gag]”, the “Score (experimentally measured binding affinity, % binding compared to control peptide)” value is listed as 95.61%.
GIDGYTRQL [HTLV-1 nonamer peptide]: the “Score (experimentally measured binding affinity, % binding compared to control peptide)” value worked out at 28.99%.
In the case of ILIQTQAQI [HTLV-1 nonamer peptide], the “Score (experimentally measured binding affinity, % binding compared to control peptide)” value stood at 79.21%.
ILPEDCLPT [HTLV-1 nonamer peptide]: the “Score (experimentally measured binding affinity, % binding compared to control peptide)” value was determined as 15.96%.
On to KLLQEKEDL [HTLV-1 nonamer peptide], for which the “Score (experimentally measured binding affinity, % binding compared to control peptide)” value came out at 0%.
Regarding LLITPVLQL [HTLV-1 nonamer peptide], the “Score (experimentally measured binding affinity, % binding compared to control peptide)” value is on record as 114.87%.
On the same count and under the same terms, for LLLDLPADI [HTLV-1 nonamer peptide] the value was 77.78%; for LLQEKEDLM [HTLV-1 nonamer peptide], 46.36%.
For the sequence LLQYLCSSL [HTLV-1 nonamer peptide], the “Score (experimentally measured binding affinity, % binding compared to control peptide)” value is on record as 45.68%.
Take LLYKISLTT [HTLV-1 nonamer peptide]: the “Score (experimentally measured binding affinity, % binding compared to control peptide)” value is listed as 78.05%.
Same read-out and setting: under LMGEVNYWQ [HTLV-1 nonamer peptide] stands 12.98%; under LQYLCSSLV [HTLV-1 nonamer peptide], 47.17%; under LTPPITHTT [HTLV-1 nonamer peptide], 31.05%.
As for LVEELVDGL [HTLV-1 nonamer peptide], the “Score (experimentally measured binding affinity, % binding compared to control peptide)” value is listed as 2.64%.
Regarding QLDSLISEA [HTLV-1 nonamer peptide], the “Score (experimentally measured binding affinity, % binding compared to control peptide)” value is 52.07%.
The same measure, in the same setting: for QLEGEVESL [HTLV-1 nonamer peptide] the value was 18.58%; for QLGAFLTNV [HTLV-1 nonamer peptide], 80.99%.
Still for that read-out and setting: for QLLASAVLL [HTLV-1 nonamer peptide] the value was 100.23%.
Regarding QLWLAAFAA [HTLV-1 nonamer peptide], the “Score (experimentally measured binding affinity, % binding compared to control peptide)” value is given as 64.37%.
With TLGQHLPTL [HTLV-1 nonamer peptide], the “Score (experimentally measured binding affinity, % binding compared to control peptide)” value worked out at 54.56%.
On the same count and under the same terms, for TLSFPDPGL [HTLV-1 nonamer peptide] the value was 0%; for TLTAWQNGL [HTLV-1 nonamer peptide], 54.64%.
Take TLYRLHVWV [HTLV-1 nonamer peptide]: the “Score (experimentally measured binding affinity, % binding compared to control peptide)” value was found to be 73.87%.
As to YILWDKQIL [HTLV-1 nonamer peptide], the “Score (experimentally measured binding affinity, % binding compared to control peptide)” value is 39%.
Same read-out and setting: under YISQDFLNM [HTLV-1 nonamer peptide] stands 10.48%; under YLCSSLVAS [HTLV-1 nonamer peptide], 42.17%.
The same measure, in the same setting: for “YLYQLSPPI [HTLV-1 nonamer peptide from Tax]” the value was 132.52%.

The next test addresses T2, HLA class I molecule A*2402 (Homo sapiens, UniProt P04439, D101N/D140Y/D185E/E176V/E190D/F33S/G103R/G107R/I119L/I121M/I306V/K335N/L105A/L180Q/L300P/N151K/N90K/Q86E/Q94H/R106L/R138H/R89G/T104I/T345S/V100E/W191G/Y123F).
T2 construct: purchased ProImmune Ltd., Oxford, UK
Experiment: not given
It is filed as binding. The note with it: REVEAL assay, assembly of peptide-HLA complex by ELISA with conformation-dependent anti-HLA antibody, relative to positive control peptide for that allele, comparable within an allele only.
Regarding AWQNGLLPF [HTLV-1 nonamer peptide], the “Score (experimentally measured binding affinity, % binding compared to control peptide)” value is reported as 92.6%.
As for DLMGEVNYW [HTLV-1 nonamer peptide], the “Score (experimentally measured binding affinity, % binding compared to control peptide)” value turned out to be 62.28%.
For the sequence EKAVLDGLL [HTLV-1 nonamer peptide], the “Score (experimentally measured binding affinity, % binding compared to control peptide)” value was 0%.
The same measure, in the same setting: for EYLKRKEEE [HTLV-1 nonamer peptide] the value was 0%; for EYQQLWLAA [HTLV-1 nonamer peptide], 2.7%; for GYPGRVNEI [HTLV-1 nonamer peptide], 82.68%.
As to GYTRQLEGE [HTLV-1 nonamer peptide], the “Score (experimentally measured binding affinity, % binding compared to control peptide)” value is given as 35.37%.
As to ICPINYSLL [HTLV-1 nonamer peptide], the “Score (experimentally measured binding affinity, % binding compared to control peptide)” value was determined as 69.19%.
As to IFSRSASPI [HTLV-1 nonamer peptide], the “Score (experimentally measured binding affinity, % binding compared to control peptide)” value came out at 62.41%.
On the same count and under the same terms, for IWQGDITHF [HTLV-1 nonamer peptide] the value was 64.83%.
Take KQIAEYLKR [HTLV-1 nonamer peptide]: the “Score (experimentally measured binding affinity, % binding compared to control peptide)” value is listed as 3.56%.
Turning to KYKNTLYRL [HTLV-1 nonamer peptide], the “Score (experimentally measured binding affinity, % binding compared to control peptide)” value was 124.9%.
In the case of KYLYHYLRT [HTLV-1 nonamer peptide], the “Score (experimentally measured binding affinity, % binding compared to control peptide)” value amounted to 2.63%.
Regarding KYTLQSYGL [HTLV-1 nonamer peptide], the “Score (experimentally measured binding affinity, % binding compared to control peptide)” value amounted to 104.78%.
